# According to ChEMBL document CHEMBL5465560, “Selectivity Literature for EUbOPEN Chemogenomic Library” (2024):
# Columns and labels:
# [1] = biological target: T1, Mitogen-activated protein kinase kinase kinase 7 (Homo sapiens) (UniProt O43318); test: Selectivity interaction (Kinase panel (literature)) EUB0001199aCl MAP3K7; conditions: at 1 µM
# T1 sequence (whole entry): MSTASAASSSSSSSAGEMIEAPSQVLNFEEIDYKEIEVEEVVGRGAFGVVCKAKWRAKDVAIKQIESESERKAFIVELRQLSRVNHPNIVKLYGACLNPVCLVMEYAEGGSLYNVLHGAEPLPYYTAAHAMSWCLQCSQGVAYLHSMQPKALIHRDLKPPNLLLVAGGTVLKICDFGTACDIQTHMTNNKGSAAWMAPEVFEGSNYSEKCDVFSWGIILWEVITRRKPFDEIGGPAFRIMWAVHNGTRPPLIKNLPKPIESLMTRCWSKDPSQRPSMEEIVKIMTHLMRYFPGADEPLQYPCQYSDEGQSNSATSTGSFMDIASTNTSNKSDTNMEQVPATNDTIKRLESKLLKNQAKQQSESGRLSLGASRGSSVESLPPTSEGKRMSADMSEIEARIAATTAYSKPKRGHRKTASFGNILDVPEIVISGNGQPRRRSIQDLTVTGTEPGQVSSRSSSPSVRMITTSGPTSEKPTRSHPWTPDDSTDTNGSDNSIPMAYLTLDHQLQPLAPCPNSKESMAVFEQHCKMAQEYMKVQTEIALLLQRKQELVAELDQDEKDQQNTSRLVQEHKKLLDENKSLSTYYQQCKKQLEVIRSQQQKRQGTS
# [2] = biological target: T2, Serine/threonine-protein kinase LATS2 (Homo sapiens) (UniProt Q9NRM7); test: Selectivity interaction (ActivX KiNativ screen (kinase selectivity in THP-1 cell lysates)) EUB0000639a LATS2; assay type: subcellular; conditions: lysate
# T2 sequence (whole entry): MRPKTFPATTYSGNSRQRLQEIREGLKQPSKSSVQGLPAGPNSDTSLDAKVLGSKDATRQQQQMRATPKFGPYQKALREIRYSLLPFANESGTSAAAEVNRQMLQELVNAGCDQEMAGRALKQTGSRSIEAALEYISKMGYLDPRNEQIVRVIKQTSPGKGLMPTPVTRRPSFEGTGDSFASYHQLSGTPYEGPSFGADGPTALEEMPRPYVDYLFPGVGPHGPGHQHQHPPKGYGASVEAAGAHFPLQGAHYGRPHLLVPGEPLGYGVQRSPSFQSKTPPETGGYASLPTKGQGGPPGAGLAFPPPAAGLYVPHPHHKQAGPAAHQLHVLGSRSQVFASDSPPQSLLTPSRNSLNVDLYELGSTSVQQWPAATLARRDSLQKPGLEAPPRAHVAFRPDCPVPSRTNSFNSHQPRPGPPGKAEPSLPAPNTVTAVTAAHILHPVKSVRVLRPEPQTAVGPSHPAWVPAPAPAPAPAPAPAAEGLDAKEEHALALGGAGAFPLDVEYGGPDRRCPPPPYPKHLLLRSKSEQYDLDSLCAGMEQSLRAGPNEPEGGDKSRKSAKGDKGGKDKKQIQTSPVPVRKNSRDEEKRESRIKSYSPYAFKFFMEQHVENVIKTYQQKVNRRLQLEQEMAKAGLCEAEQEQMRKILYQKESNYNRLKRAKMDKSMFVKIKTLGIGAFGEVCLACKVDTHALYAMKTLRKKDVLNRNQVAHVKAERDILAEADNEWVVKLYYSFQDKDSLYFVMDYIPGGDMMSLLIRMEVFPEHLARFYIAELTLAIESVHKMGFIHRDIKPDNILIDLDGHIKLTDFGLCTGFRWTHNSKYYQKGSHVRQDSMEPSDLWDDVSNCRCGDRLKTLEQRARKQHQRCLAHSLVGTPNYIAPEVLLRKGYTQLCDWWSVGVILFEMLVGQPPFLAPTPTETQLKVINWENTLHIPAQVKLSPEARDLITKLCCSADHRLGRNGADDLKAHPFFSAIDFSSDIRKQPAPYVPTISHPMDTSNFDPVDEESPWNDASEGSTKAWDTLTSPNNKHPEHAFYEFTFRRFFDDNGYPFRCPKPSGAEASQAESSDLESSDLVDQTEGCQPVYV
# [3] = biological target: Insulin receptor-related protein (Homo sapiens) (UniProt P14616); test: Selectivity interaction (Kinase screening (Nanosyn)) EUB0000604a INSRR
# Sequence of Insulin receptor-related protein (Homo sapiens) (P14616 27-742 limits assumed): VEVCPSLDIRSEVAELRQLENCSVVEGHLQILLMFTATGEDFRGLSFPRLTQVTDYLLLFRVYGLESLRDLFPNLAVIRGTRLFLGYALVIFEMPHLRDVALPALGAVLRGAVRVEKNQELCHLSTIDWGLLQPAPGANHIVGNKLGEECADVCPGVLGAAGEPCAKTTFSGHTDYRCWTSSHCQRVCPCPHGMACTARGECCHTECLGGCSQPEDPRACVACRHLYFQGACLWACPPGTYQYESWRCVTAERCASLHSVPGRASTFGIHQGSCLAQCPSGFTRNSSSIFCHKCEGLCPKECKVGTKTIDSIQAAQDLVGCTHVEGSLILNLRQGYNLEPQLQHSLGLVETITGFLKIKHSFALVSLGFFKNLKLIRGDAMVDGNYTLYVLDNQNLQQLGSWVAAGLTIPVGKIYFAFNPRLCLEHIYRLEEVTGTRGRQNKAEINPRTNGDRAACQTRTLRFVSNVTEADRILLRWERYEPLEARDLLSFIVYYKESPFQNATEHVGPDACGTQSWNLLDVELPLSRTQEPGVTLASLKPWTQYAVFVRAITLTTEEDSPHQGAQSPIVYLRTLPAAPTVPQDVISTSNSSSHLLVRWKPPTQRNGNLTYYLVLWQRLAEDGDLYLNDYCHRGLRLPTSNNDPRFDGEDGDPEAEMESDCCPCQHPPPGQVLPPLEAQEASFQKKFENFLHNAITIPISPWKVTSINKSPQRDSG
# Sequence of Insulin receptor-related protein (Homo sapiens) (P14616 747-1297 limits assumed): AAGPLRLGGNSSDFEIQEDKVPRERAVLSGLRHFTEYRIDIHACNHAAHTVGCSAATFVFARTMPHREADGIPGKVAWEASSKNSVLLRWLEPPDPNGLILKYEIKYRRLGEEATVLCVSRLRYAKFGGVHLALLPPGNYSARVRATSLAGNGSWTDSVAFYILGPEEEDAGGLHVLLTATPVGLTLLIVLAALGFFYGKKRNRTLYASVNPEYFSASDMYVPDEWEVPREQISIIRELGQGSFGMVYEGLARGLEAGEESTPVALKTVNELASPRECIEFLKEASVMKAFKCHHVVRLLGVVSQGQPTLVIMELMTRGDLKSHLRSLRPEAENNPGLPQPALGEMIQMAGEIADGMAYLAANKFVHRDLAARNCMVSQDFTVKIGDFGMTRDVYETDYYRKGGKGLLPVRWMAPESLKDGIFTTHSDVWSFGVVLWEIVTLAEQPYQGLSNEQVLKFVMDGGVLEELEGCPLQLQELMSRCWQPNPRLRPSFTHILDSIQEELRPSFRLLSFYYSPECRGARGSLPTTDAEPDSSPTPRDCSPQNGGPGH
# [4] = biological target: T3, Serine/threonine-protein kinase RIO3 (Homo sapiens) (UniProt O14730); test: Selectivity interaction (KinomeScan (DiscoverX)) EUB0000045b RIOK3
# T3 sequence (whole entry): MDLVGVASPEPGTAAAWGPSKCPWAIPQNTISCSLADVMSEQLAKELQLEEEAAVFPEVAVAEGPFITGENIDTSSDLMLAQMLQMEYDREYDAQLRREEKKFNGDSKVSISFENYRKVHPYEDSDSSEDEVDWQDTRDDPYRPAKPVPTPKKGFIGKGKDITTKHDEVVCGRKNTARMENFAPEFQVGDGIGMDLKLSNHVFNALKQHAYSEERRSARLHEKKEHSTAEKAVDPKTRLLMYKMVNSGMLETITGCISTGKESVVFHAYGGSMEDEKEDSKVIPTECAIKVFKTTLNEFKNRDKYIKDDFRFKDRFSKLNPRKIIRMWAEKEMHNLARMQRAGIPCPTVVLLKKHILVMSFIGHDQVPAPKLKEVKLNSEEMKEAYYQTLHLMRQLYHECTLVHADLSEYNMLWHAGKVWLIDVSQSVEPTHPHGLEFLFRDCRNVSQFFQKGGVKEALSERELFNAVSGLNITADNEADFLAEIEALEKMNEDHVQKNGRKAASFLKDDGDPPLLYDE
# [5] = biological target: Serine/threonine-protein kinase Nek4 (Homo sapiens) (UniProt P51957); test: Selectivity interaction (KinomeScan (DiscoverX)) EUB0000618a NEK4; conditions: at 10 µM
# Sequence of Serine/threonine-protein kinase Nek4 (Homo sapiens) (P51957 whole entry, looked up): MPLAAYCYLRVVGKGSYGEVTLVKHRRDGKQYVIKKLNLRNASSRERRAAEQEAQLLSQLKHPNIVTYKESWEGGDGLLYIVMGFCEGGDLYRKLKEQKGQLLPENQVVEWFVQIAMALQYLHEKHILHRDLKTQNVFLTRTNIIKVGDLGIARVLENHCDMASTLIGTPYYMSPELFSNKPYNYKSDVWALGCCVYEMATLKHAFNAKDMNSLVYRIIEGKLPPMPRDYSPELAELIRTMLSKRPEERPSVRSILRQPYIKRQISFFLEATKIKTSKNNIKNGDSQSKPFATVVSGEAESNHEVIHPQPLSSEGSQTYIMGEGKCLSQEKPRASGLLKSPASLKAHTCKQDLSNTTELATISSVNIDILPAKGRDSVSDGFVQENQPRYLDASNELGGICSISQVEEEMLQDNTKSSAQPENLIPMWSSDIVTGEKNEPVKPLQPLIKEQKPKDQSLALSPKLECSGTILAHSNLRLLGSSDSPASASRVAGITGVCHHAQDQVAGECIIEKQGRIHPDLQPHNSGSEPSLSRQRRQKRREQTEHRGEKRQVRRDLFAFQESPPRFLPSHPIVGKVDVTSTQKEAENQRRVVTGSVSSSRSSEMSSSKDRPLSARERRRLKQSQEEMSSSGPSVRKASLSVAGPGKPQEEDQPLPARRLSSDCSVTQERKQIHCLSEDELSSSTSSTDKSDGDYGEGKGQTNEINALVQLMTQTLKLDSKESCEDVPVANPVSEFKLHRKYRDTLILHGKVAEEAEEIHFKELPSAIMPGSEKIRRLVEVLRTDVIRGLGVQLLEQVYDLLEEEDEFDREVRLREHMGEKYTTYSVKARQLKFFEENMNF
# [6] = biological target: Serine/threonine-protein kinase 38 (Homo sapiens) (UniProt Q15208); test: Selectivity interaction (ActivX KiNativ screen (ex vivo kinase selectivity in human PBMCs)) EUB0001619a STK38; assay type: cell-based; conditions: PBMC, at 1 µM
# Sequence of Serine/threonine-protein kinase 38 (Homo sapiens) (Q15208 2-465 limits assumed): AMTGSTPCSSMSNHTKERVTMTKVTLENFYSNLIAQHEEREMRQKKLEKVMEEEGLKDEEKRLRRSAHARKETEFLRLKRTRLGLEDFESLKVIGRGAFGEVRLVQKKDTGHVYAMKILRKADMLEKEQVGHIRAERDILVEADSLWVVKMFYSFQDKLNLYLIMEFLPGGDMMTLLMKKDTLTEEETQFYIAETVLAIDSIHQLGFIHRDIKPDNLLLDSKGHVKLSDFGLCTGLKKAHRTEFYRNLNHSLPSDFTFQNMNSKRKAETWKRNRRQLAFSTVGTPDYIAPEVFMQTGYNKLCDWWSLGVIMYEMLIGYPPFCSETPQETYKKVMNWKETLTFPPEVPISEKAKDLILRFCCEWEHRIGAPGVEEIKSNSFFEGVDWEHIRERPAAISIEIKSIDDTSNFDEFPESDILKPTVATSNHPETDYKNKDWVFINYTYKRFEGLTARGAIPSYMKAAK
# [7] = biological target: Ribosomal protein S6 kinase alpha-2 (Homo sapiens) (UniProt Q15349); test: Selectivity interaction (KinomeScan (DiscoverX)) EUB0000655a RPS6KA2; conditions: at 10 µM
# Sequence of Ribosomal protein S6 kinase alpha-2 (Homo sapiens) (Q15349 whole entry): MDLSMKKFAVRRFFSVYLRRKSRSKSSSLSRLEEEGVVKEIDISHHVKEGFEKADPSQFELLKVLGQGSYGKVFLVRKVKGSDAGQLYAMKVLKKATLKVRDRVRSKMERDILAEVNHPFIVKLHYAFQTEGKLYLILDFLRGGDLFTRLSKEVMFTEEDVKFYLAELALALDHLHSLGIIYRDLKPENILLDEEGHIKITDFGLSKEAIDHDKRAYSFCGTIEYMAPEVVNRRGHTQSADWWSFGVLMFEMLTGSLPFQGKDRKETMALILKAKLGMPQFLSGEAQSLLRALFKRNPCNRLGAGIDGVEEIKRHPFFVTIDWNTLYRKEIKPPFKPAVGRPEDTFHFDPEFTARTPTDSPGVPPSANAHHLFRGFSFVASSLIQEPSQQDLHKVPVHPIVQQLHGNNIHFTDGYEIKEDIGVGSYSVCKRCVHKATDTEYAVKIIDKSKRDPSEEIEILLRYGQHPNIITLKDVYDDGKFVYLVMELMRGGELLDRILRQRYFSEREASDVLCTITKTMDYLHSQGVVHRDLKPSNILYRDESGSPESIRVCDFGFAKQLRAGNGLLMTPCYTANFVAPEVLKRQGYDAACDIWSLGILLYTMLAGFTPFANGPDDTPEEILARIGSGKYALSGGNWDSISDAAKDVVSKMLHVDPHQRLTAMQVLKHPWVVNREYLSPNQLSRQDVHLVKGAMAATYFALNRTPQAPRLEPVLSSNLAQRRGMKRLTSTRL
# [8] = system: Serine/threonine-protein kinase B-raf (Homo sapiens), P15056 [V600E]; conditions: at 10 µM
# Sequence of Serine/threonine-protein kinase B-raf (Homo sapiens), P15056 [V600E] (P15056 whole entry V600E): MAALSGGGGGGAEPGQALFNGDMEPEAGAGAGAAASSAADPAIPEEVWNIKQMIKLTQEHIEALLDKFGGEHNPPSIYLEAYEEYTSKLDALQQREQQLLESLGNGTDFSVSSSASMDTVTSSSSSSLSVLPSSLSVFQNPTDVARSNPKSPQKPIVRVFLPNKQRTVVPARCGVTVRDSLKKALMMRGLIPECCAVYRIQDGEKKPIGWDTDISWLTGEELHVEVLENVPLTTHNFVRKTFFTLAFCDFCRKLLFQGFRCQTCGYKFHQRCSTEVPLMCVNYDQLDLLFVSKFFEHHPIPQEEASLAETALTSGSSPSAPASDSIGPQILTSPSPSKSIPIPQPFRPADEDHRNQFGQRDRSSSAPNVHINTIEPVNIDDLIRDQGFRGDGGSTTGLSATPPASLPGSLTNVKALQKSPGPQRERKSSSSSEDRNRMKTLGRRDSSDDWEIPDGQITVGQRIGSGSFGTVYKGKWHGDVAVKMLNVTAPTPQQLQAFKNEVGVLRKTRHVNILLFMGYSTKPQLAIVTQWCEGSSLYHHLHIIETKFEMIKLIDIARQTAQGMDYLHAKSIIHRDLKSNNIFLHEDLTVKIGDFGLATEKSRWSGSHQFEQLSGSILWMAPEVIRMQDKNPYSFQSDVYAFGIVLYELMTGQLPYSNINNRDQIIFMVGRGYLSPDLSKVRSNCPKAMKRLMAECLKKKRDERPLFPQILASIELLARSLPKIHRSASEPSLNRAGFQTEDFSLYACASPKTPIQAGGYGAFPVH
# [9] = biological target: Cyclin-dependent kinase 7 (Homo sapiens, UniProt P50613); test: Selectivity interaction (KinomeScan (DiscoverX)) EUB0000607a CDK7; conditions: at 10 µM
# Sequence of Cyclin-dependent kinase 7 (P50613 whole entry): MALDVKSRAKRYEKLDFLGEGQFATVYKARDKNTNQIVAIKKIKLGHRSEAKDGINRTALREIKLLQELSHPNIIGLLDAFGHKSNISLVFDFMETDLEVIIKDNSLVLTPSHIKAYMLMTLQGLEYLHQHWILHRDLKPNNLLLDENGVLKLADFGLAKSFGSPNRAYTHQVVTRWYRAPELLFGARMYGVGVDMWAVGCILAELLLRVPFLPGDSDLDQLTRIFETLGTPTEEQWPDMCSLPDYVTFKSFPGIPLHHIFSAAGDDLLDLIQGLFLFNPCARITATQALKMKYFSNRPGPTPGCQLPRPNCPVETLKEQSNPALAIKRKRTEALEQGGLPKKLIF
smiles,measurement,setting,value
CN1Cc2nccc(-c3cn(C)nc3-c3ccc(F)cc3)c2C1=O,% of inhibition,[1],3%
CC[C@@H]1[C@H](F)C(=O)N[C@@H]1COc1nccc2cc(C(N)=O)c(OC)cc12 [ZIMLOVISERTIB],% of inhibition,[2]; at 0.01 µM,-10.4%
same,% of inhibition,[2]; at 0.04 µM,-16%
same,% of inhibition,[2]; at 0.2 µM,2.1%
same,% of inhibition,[2]; at 1 µM,32.5%
same,% of inhibition,[2]; at 5 µM,85%
Cc1cnc(Nc2ccc(F)cc2Cl)nc1-c1c[nH]c(C(=O)N[C@H](CO)c2cccc(Cl)c2)c1,% of inhibition,[3],0%
C=CC(=O)Nc1cc(-n2c(=O)ccc3cnc4ccc(-c5ccc(NS(C)(=O)=O)cc5)cc4c32)ccc1C,% of control,[4]; at 1 µM,55%
same,% of control,[4]; at 10 µM,60%
O[C@H]1CC[C@H](Nc2ncc3nc(Nc4c(F)cc(F)cc4F)n([C@H]4CCOC4)c3n2)CC1,% of control,[5],100%
N#Cc1cccc(-c2c[nH]c3ncnc(N4CCOCC4)c23)c1,% of inhibition,[6],2%
CN(C)CCOc1ccc(-c2nc(-c3ccncc3)c(-c3ccc4c(c3)CC/C4=N\O)[nH]2)cc1,% of control,[7],100%
same,% of control,[8],0%
CNC(=O)Nc1ccc(-c2nc(N3CC4CCC(C3)O4)c3cnn(C4CCC5(CC4)OCCO5)c3n2)cc1,% of control,[9],88%
